According to patent US20170281653A1, “DERMOCOSMETIC OR PHARMACEUTICAL USE OF A COMPOSITION CONTAINING AT LEAST ONE INHIBITOR OF CERTAIN CHEMOKINES” (GREENPHARMA, priority 2014, published 2017):
Where two headings read alike, the source gives them in different places.

Key:
CCL17 = molecular target: T1, CCL17 (Homo sapiens, UniProt Q92583); experiment: Inhibition of intracellular calcium response (INDO-1) induced by CCL17 in HEK 293 cells expressing CCR4; format: cell-based; details: compound concentration not given
T1 construct: host or cells: HEK 293 cells expressing EGFP-CCR4 (and Gqi5)
T1 sequence (Q92583 24-94): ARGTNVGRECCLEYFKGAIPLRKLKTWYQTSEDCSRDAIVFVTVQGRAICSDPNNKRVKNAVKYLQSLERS
Procedure: In order to enable an easy recording of the responses associated to the CCR4 receptor, the cDNA which allows its expression is cloned in the plasmid pIRES (ClonTech) in fusion with the GFP protein, according to Vollmer et al. (1999), which enables to easily measure the expression of the chimeric EGFP-CCR4 receptor. HEK 293 cells (ATCC) are cultured in minimal essential medium MEM (Invitrogen) in the presence of 10% of fetal calf serum (Gibco-BRL), 100 U/mL of penicillin (Invitrogen), 100 αg/mL of streptomycin (Invitrogen) and 2 mM of L-glutamine (Invitrogen) at 37° C. in water-saturated atmosphere and containing 5% of 002. The cells are transfected according to the calcium phosphate precipitate method of Chen ant Okayama, 1986, and the cells having incorporated the expression plasmid are selected with 600 αg/mL of geneticin G-418 (PAA) for 5 weeks. The clones are selected after having been characterized by fluorescence microscopy and cytometric analysis by FACS (fluorescence assisted cell sorting). In order to enable an easy recording of the cell responses associated to the CCR4 receptor, we modify its natural coupling to the inhibition of AMPc production to a coupling to the phospholipase C which enables calcium measurements. We produce for this purpose the chimeric protein Gqi5 by directed mutagenesis of the 5 las amino acids of Gq replaced by their homologues of Gi. The cells expressing the CCR4 receptor are transfected with the plasmid pCNA3.1 in which the cDNA encoding Gqi5 has been incorporated. The recordings of calcium responses are performed the day after de transfection. The cells are loaded with a fluorescent calcium indicator, INDO-1, according to the protocol provided by the provider (Molecular probes), distributed in microplate wells and placed in a fluorescence reader-pipettor (FlexStation, Molecular devices). Intracellular calcium elevation is measured by fluorescence intensity change at 401 and 475 nm (excitation 355 nm). Measure points are recorded every 5 s for 150 s for each well. The molecules are tested in the presence of 5 nM of chemokine CCL22 (commercial). […] The response develops in a few seconds and fades with time for reaching the return in approximately 2 minutes for a chemokine CCL22 concentration of 5 to 10 nM in HEK 293 cells expressing CCR4. If the molecules to be tested are preincubated with chemokine [CK+N] and if the mixture is added to the cells, we observe a strong decrease in the amplitude of the response if the molecule to be tested is a neutralizing ligand of the chemokine. Conversely, when the neutralizing ligand is preincubated with the cells expressing the receptor [CKR+N] we observe a much smaller decrease of the amplitude of the response. Analysis of the molecules selectivity is carried out by measuring the inhibition of the response evoked by other chemokines on their respective receptors thus, in FIG. 3, the molecules have been tested on the pairs CCL2/CCR2, CCL3/CCR5, CCL17/CCR4, CCL22/CCR4, […], CXCL10/CXCR2, CXCL11/CXCR3, CXCL12/CXCR4.

CCL22 [1] = molecular target: T2, CCL22 (Homo sapiens, UniProt O00626); experiment: Inhibition of intracellular calcium response (INDO-1) induced by CCL22 in HEK 293 cells expressing EGFP-CCR4 and Gqi5; format: cell-based; design: purchased; host or cells: HEK 293 cells stably expressing EGFP-CCR4, transiently transfected with Gqi5; details: HEK 293 cells expressing CCR4; 5 nM CCL22; compound concentration not given
T2 sequence (O00626 25-93): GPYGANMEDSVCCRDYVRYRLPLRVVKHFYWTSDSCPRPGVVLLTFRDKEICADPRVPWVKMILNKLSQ
Procedure: In order to enable an easy recording of the responses associated to the CCR4 receptor, the cDNA which allows its expression is cloned in the plasmid pIRES (ClonTech) in fusion with the GFP protein, according to Vollmer et al. (1999), which enables to easily measure the expression of the chimeric EGFP-CCR4 receptor. HEK 293 cells (ATCC) are cultured in minimal essential medium MEM (Invitrogen) in the presence of 10% of fetal calf serum (Gibco-BRL), 100 U/mL of penicillin (Invitrogen), 100 αg/mL of streptomycin (Invitrogen) and 2 mM of L-glutamine (Invitrogen) at 37° C. in water-saturated atmosphere and containing 5% of 002. The cells are transfected according to the calcium phosphate precipitate method of Chen ant Okayama, 1986, and the cells having incorporated the expression plasmid are selected with 600 αg/mL of geneticin G-418 (PAA) for 5 weeks. The clones are selected after having been characterized by fluorescence microscopy and cytometric analysis by FACS (fluorescence assisted cell sorting). In order to enable an easy recording of the cell responses associated to the CCR4 receptor, we modify its natural coupling to the inhibition of AMPc production to a coupling to the phospholipase C which enables calcium measurements. We produce for this purpose the chimeric protein Gqi5 by directed mutagenesis of the 5 las amino acids of Gq replaced by their homologues of Gi. The cells expressing the CCR4 receptor are transfected with the plasmid pCNA3.1 in which the cDNA encoding Gqi5 has been incorporated. The recordings of calcium responses are performed the day after de transfection. The cells are loaded with a fluorescent calcium indicator, INDO-1, according to the protocol provided by the provider (Molecular probes), distributed in microplate wells and placed in a fluorescence reader-pipettor (FlexStation, Molecular devices). Intracellular calcium elevation is measured by fluorescence intensity change at 401 and 475 nm (excitation 355 nm). Measure points are recorded every 5 s for 150 s for each well. The molecules are tested in the presence of 5 nM of chemokine CCL22 (commercial). […] The response develops in a few seconds and fades with time for reaching the return in approximately 2 minutes for a chemokine CCL22 concentration of 5 to 10 nM in HEK 293 cells expressing CCR4. If the molecules to be tested are preincubated with chemokine [CK+N] and if the mixture is added to the cells, we observe a strong decrease in the amplitude of the response if the molecule to be tested is a neutralizing ligand of the chemokine. Conversely, when the neutralizing ligand is preincubated with the cells expressing the receptor [CKR+N] we observe a much smaller decrease of the amplitude of the response. The apparent affinity of the GPN136 molecules is determined by the establishment of a dose-effect relationship of the inhibition of the calcium response as presented in FIG. 2 and the results obtained are reported in table 1.

CCL22 [2] = molecular target: T2, CCL22; experiment: Interaction affinity by fluorescence extinction of tryptophan residues of CCL22; format: binding; details: for Kd: CCL22 1.5 μm, HEPES buffer without albumin, 20° C., biphasic titration curve; for Fluorescence extinction of CCL22 (tryptophan intrinsic fluorescence): excitation 285 nm, emission 300-400 nm, FIG. 4
Procedure: Briefly: the fluorescence measurements are carried out on a spectrofluorimeter Fluorolog 3 (JobinYvon/Spex) in a quartz cuvette. CCL22 (1.5 μm (HEPES buffer without albumin) in 1 mL final volume) is excited at 285 nm and its emission spectrum is recorded between 300 and 400 nm after each addition of an aliquot of molecule to be tested (1 μm). The measurements are carried out at 20° C. and the solutions are stirred using a magnetic stir bar. The recorded emission spectra are corrected by subtraction of the emission spectrum of the compound to be tested alone.

Hacat cells [3] = experiment: Human keratinocyte migration assay (in vitro wound-healing test in a cell monolayer, scratch, IncuCyte); format: cell-based; details: 100 ng/ml CCL22, 72 h, mitomycin 1 μg/ml, FIG. 5
Source text: The activity of the GPN 136 molecule has been evaluated in a human keratinocytes migration assay performed according to an in vitro wound-healing test in a cell monolayer. It is actually known that, in these chronic pathologies, an important cell migration may promote de formation of pruritus, one of the signs of dermatosis. The immortalized human keratinocytes obtained from the DKFZ (Heidelberg, Germany) are cultivated in Dulbecco medium modified by Eagle (DMEM, Invitrogen) supplemented with 10% of fetal calf serum (Gibco-BRL) and 100 U/ml of penicillin (Invitrogen), 100 μg/ml of streptomycin (Invitrogen) and 2 mM of L glutamine (Invitrogen) at 37° C. and 5% of CO2. The wells of a culture plate of 24 well are inoculated with 200,000 cells and the culture is maintained until formation of a confluent cell monolayer. The cell monolayer is then damaged by performing a linear gap (scratch) using a sterile pipette head of 0.1-10 μL. […] The effect of the molecules alone is also recorded in different wells. […]
The culture plates are arranged in the IncuCyte apparatus which records the growth on the cell monolayer by transmitted imaging in cell culture conditions (37° C., 5% CO2, water-saturated atmosphere) for 72 h. […] Healing is defined (quantified) as the ratio of the width of the scar at time t and time 0. […]

Hacat cells [4] = experiment: Metabolic activity test (WST-1 assay), in vitro cytotoxic activity; format: cell-based, human; details: 0.3 μM, 10 μM or 30 μM, 72 hours, FIG. 7
Source text: The metabolic activity test is a colorimetric test (WST-1 assay—Ozyme) based on the measurement of the activity of the mitochondrial enzyme succinate-tetrazolium reductase cleaving the tetrazolium salt WST-1 ((4-[3-(4-Iodophenyl)-2-(4-nitrophenyl)-2H-5-tetrazolio]-1,3 benzene disulfonate)) in a water-soluble derivative called formazan, a dye which absorbs light in the range of 420-480 nm. Hacat cells are distributed at the rate of 200,000 cells per well in a culture plate of 24 wells, in a final volume of 500 μL. They are cultured for 24 hours before adding mitomycin C (1 μg/ml) and the compound to be tested. The culture plate is incubated for 72 hours at 37° C., 5% CO2, in water-saturated atmosphere. […] The plates are stirred to homogenize the color in the wells and the absorbance is measured at 450 nm in the multiwell-plate reader. […] As enzymatic activity requires cellular integrity, the absorbance will be all the stronger as the metabolic state of the cells is good.
In vitro cytotoxic activity: the Hacat cell cultures are treated with different concentrations of molecule: 0.3 μM (dark gray bars), 10 μM (light gray bars) or 30 μM (white bars) of GPN 136 and GPN 025 molecules. The activity of the mitochondrial enzyme formazan-reductase is recorded using the chromogenic substrate WST-1 which turns into a colored product, called formazan, detected at 450 nm.

| SMILES | Inhibition of calcium responses induced by CCL17 (%) (CCL17) | Inhibition of calcium responses induced by CCL22 (%) (CCL22 [1]) | also measured |
| --- | --- | --- | --- |
| O=C(OC[C@@H](O)CO)c1ccccc1 [GPS008507] | 0% | 0% | – |
| O=C(OCC(O)CO)c1ccccc1O (stereo in doubt) [GPS008505, (R)-2,3-dihydroxypropyl 2-hydroxybenzoate] | 0% | 37 ± 6% | – |
| O=C(OCC(O)CO)c1ccccc1O (stereo not shown) [GPN136, 2,3-dihydroxypropyl 2-hydroxybenzoate] | 0% | 35 ± 8% | Kd (CCL22 [2]; read-out: KD, second site): 53 µM; Kd (CCL22 [2]; read-out: KD, site of high affinity): < 0.05 µM; Fluorescence extinction of CCL22 (tryptophan intrinsic fluorescence) (CCL22 [2]): fluorescence extinction of CCL22 is observed; Effect on CCL22-accelerated cell migration (Hacat cells [3]): abolished; Effect on mitochondrial enzymatic activity / cellular metabolism (WST-1, 450 nm) (Hacat cells [4]): does not affect enzymatic activity |
| COc1cc2nc(N3CCC(N4CCCCC4)CC3)nc(NC3CCCCCC3)c2cc1OC [C-021, reference compound] | – | – | Fluorescence extinction of CCL22 (tryptophan intrinsic fluorescence) (CCL22 [2]): no signal |
| CC(=O)Oc1ccccc1C(=O)O [Acetylsalicylic acid, reference compound] | 0% | 0% | – |
| O=C(O)c1ccccc1O [GPN0001207] | 0% | 0% | – |
| O=C(OCC(O)CO)c1ccccc1O (stereo in doubt) [GPS008506, (S)-2,3-dihydroxypropyl 2-hydroxybenzoate] | 0% | 40 ± 5% | – |
| O=C(OCC(O)COC(=O)c1ccccc1O)c1ccccc1O [GPS008504] | 0% | 10 ± 5% | – |
| O=C(OC[C@H](O)CO)c1ccccc1 [GPS008508] | 0% | 0% | – |
